Measured values taken from PMC8262977, “A Dual-Specificity Inhibitor Targets Polyphosphate Kinase 1 and 2 Enzymes To Attenuate Virulence of Pseudomonas aeruginosa” (mBio, 2021).

Tests used:
P. aeruginosa PA14 [1] = test: Bacterial growth kinetics (OD600); assay type: cell-based, Pseudomonas aeruginosa
Source text: FIG 3 Gallein phenocopies ppk deletion to attenuate P. aeruginosa swimming motility. (A) Representative image of swimming motility. (B) Quantification of the effects of gallein treatment and ppk gene deletion on swimming motility. (C) PA14 growth kinetics in the presence and absence of gallein in lysogeny broth (equivalent in composition to swim plates, minus the agar). ns, P > 0.05; *, P < 0.05; **, P < 0.01; ***, P < 0.001 (two-way ANOVA, Tukey’s multiple-comparison test, n = 3). All data points are the average from triplicates; error bars are ±standard deviation.
Supplementary file : FIG S4 Growth curves of P. aeruginosa WT and ΔpolyP in M63 biofilm medium (A) and liquid killing C. elegans assay medium (B). Gallein, or an equivalent volume of DMSO, was added to a 100 μM final concentration. OD600 monitored in triplicate cultures grown in 96-well plates at 37°C following colony inoculation. Error bars ± standard deviation. Download FIG S4, TIF file, 2.5 MB.

P. aeruginosa = test: microbe, parasite or virus in culture; assay type: cell-based, Pseudomonas aeruginosa; settings: 100 μM gallein, LK medium
[2] = mice, 5 to 10 mg/kg of body weight daily for up to 8 weeks; cited from earlier work
human protein kinases = test: Counterscreen against human protein kinases, [33P]ATP filter-binding assay; assay type: biochemical; settings: 10 μM gallein, array of divergent human kinases
Experimental: Toxicity is always a major concern with kinase inhibitors, even though the absence of PPK homologues in mammals makes these enzymes particularly attractive therapeutic targets ([1], [11]). Cytotoxicity of the inhibitors was therefore assessed in cultured human embryonic kidney (HEK) […] cells via standard trypan blue viability assays ([36]). While the initial hit RT1 reduced cell viability by ∼60%, gallein was noncytotoxic at concentrations up to 100 μM (Fig. 6A). Gallein was also counterscreened against an array of divergent human kinases available at the International Centre for Kinase Profiling (University of Dundee), as described previously ([37]).
FIG 6 Gallein avoids off-target toxicity. (A) HEK cell cytotoxicity assay. Viability determined via trypan blue staining following 48 h of incubation with compounds. (B) Counterscreen for inhibition of human protein kinases by 10 μM gallein via radioactive ([^33P]ATP) filter-binding assay performed by the University of Dundee MRC PPU ([26]). (A) ns, P > 0.05; *, P < 0.05 (one-way ANOVA, Tukey’s multiple-comparison test, n = 3).

P. aeruginosa PPK1 = target: T1, P. aeruginosa PPK1 (Pseudomonas aeruginosa, UniProt P0DP44); test: PPK1 polyP synthesis from ATP, toluidine blue detection; assay type: biochemical
T1 construct: His tag (cleaved yes); made in house
T1 sequence (P0DP44 whole entry): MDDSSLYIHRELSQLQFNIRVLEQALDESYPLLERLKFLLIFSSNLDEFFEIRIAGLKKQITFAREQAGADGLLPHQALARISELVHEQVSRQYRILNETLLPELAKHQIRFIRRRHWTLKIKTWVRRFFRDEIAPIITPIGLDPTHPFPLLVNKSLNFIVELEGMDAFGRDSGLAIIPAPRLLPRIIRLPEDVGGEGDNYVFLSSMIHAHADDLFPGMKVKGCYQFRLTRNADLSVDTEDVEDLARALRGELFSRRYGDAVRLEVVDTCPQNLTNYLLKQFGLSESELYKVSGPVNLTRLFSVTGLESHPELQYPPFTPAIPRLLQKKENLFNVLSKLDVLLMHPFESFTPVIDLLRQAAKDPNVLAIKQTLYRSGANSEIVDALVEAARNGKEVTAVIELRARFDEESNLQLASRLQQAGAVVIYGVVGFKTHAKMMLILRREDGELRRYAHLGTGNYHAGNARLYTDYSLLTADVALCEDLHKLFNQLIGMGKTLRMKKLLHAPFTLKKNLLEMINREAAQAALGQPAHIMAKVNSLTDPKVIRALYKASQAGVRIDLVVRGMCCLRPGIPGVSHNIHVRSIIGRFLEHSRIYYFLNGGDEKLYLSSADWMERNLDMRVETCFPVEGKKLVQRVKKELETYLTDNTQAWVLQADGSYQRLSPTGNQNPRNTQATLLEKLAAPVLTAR
Experimental: Compounds were synthesized as outlined in Text S1. Compounds were dissolved in DMSO to make 10 mM stocks and added to a 200 μM final concentration for initial screening. The screen for PPK1 inhibitors was conducted by measuring polyP synthesis activity as described previously ([12]), with the exception of the polyP detection method (see Text S1). […] One-hundred-microliter reaction mixtures were incubated at 37°C for 30 min, after which time 50-μl aliquots were withdrawn and added to 1,000 μl of 6-mg/liter toluidine blue dissolved in 40 mM acetic acid to quench the reaction and quantify polyP ([27]). The A630/530 nm ratio was then recorded, and the values obtained were corrected by subtracting the corresponding blanks (all ingredients except enzyme). The amount of polyP synthesized was calculated using a standard curve (Fig. S1A). Any compounds showing 50% or greater reduction in activity relative to the DMSO control were subjected to further IC50 analysis.
(§1) All IC50 and kinetic assay mixtures contained equimolar amounts (275 nM) of PPK to ensure valid comparison between different enzymes. PolyP synthesis activity (for PPK1 and PPK2B) was assayed using the reaction buffer and conditions described above. ATP concentration was varied as indicated for kinetic experiments. Curves were fit using GraphPad Prism V9.

P. aeruginosa PA14 [3] = test: Pyoverdine quantification (absorbance at 403 nm); assay type: cell-based, Pseudomonas aeruginosa
Experimental: (§2) Fifty-milliliter P. aeruginosa cultures in 2.5% (wt/vol) LB (Miller; Bioshop) were grown to stationary phase in 125-ml Erlenmeyer flasks with 180-rpm shaking at 37°C for 18 h. Cultures were centrifuged at 18,000 rpm for 30 min to clarify the supernatant, which was then filter sterilized. Pyoverdine was quantified spectrophotometrically at 403 nm as described previously ([55]). Pyocyanin was extracted via chloroform and treated with HCl to yield a red product that was quantified at 520 nm ([55]). To account for any colorimetric interference by inhibitors, cell-free blank readings were subtracted from each sample.

P. aeruginosa PPK2B = target: T2, P. aeruginosa PPK2B (Pseudomonas aeruginosa, UniProt Q9I154); test: PPK2B polyP synthesis from ATP, toluidine blue detection; assay type: biochemical; settings: polyP synthesis from ATP; 275 nM enzyme; read-out: IC50 PPK2B
T2 construct: MBP (N, cleaved yes); His tag (N, cleaved yes); made in house; host or cells: E. coli BL21(DE3)
T2 sequence (Q9I154 whole entry): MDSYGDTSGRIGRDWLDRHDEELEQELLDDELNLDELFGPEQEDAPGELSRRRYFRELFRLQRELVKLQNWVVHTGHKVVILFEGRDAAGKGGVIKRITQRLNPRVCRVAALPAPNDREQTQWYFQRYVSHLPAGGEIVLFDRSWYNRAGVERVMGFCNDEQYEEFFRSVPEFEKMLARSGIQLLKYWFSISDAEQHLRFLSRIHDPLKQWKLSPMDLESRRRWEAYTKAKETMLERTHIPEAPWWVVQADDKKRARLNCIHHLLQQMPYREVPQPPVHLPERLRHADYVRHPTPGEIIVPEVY
Experimental: Compounds were synthesized as outlined in Text S1. Compounds were dissolved in DMSO to make 10 mM stocks and added to a 200 μM final concentration for initial screening. The screen for PPK1 inhibitors was conducted by measuring polyP synthesis activity as described previously ([12]), with the exception of the polyP detection method (see Text S1). The reaction mix contained 50 mM HEPES-KOH, pH 7.5, 40 mM (NH4)2SO4, 4 mM MgSO4, 60 mM creatine phosphate, 0.0625 mg/ml creatine kinase (Sigma; from rabbit muscle), 5 mM ATP, and 275 nM PPK1 (added last). One-hundred-microliter reaction mixtures were incubated at 37°C for 30 min, after which time 50-μl aliquots were withdrawn and added to 1,000 μl of 6-mg/liter toluidine blue dissolved in 40 mM acetic acid to quench the reaction and quantify polyP ([27]). The A630/530 nm ratio was then recorded, and the values obtained were corrected by subtracting the corresponding blanks (all ingredients except enzyme). The amount of polyP synthesized was calculated using a standard curve (Fig. S1A). Any compounds showing 50% or greater reduction in activity relative to the DMSO control were subjected to further IC50 analysis.
as §1

P. aeruginosa PA14 [4] = test: Pyocyanin quantification (absorbance at 520 nm); assay type: cell-based, Pseudomonas aeruginosa
Experimental: as §2

[5] = WT: DMSO control vs 100 µM gallein

## O=C1OC2(c3ccccc31)c1ccc(O)c(O)c1Oc1c2ccc(O)c1O [RT4 (gallein), gallein]
P. aeruginosa PA14 [1]; LK conditions, 100 μM
  growth kinetics: near-WT growth kinetics
P. aeruginosa PA14 [1]; biofilm assay conditions (M63 medium), 100 μM
  planktonic growth rate: did not affect the planktonic growth rate
P. aeruginosa PA14 [1]; lysogeny broth
  bacterial growth kinetics: did not affect bacterial growth kinetics
P. aeruginosa
  effect on the MIC of tetracycline or ciprofloxacin: did not alter the MIC
[2]
  adverse effects: no adverse effects
Human protein kinases
  loss of activity of human kinases: ≤ 25%
P. aeruginosa PPK1; no creatine kinase/creatine phosphate, low-micromolar gallein
  PPK1 activity in the absence of ATP regeneration: reduced both PPK1 activity rate and equilibrium polyP levels
P. aeruginosa PPK1; polyP synthesis from ATP, 275 nM enzyme
  IC50: 17 ± 1 µM
P. aeruginosa PA14 [3]; WT, Δppk1 and Δppk2 strains
  pyoverdine production: reproduced the marked pyoverdine and pyocyanin defects observed in the ΔpolyP strain
P. aeruginosa PA14 [3]; [5]
  Pyoverdine, Mean Diff.: 38.33
P. aeruginosa PA14 [3]; ΔpolyP strain
  pyoverdine production: no significant decrease of either toxin
P. aeruginosa PA14 [3]; Δppk1, 2a, 2b, 2c: DMSO control vs 100 µM gallein
  Pyoverdine, Mean Diff.: -3.233
P. aeruginosa PA14 [3]; Δppk1: DMSO control vs 100 µM gallein
  Pyoverdine, Mean Diff.: 17.13
P. aeruginosa PA14 [3]; Δppk2a, 2b, 2c: DMSO control vs 100 µM gallein
  Pyoverdine, Mean Diff.: 45.33
P. aeruginosa PPK2B
  IC50: 20 ± 2 µM
P. aeruginosa PA14 [4]; WT, Δppk1 and Δppk2 strains
  pyocyanin production: reproduced the marked pyoverdine and pyocyanin defects observed in the ΔpolyP strain
P. aeruginosa PA14 [4]; [5]
  Pyocyanin, Mean Diff.: 0.2097
P. aeruginosa PA14 [4]; ΔpolyP strain
  pyocyanin production: no significant decrease of either toxin
P. aeruginosa PA14 [4]; ∆ppk1, 2a, 2b, 2c: DMSO control vs 100 µM gallein
  Pyocyanin, Mean Diff.: 0.07567
P. aeruginosa PA14 [4]; ∆ppk1: DMSO control vs 100 µM gallein
  Pyocyanin, Mean Diff.: 0.08867
P. aeruginosa PA14 [4]; ∆ppk2a, 2b, 2c: DMSO control vs 100 µM gallein
  Pyocyanin, Mean Diff.: 0.2097
